Test results: patent publication US11524948B2, “Prodrugs of alpha-ketoglutarate, alpha-ketobutyrate, alpha-ketoisovalerate, and alpha-ketoisohexanoate, and uses thereof” (The Regents of the University of California, priority 2018, dated 2022)
“Also recorded” adds a separate entry of the source.

Legend:
mTOR signaling = assay: Western blot of mTOR signaling in H9C2 rat cardiomyocytes; format: cell-based; conditions: H9C2 cells, 15 min to 8 hr, FIGS. 2C, 2E, 2F
Procedure: (§1) H9C2 rat cardiomyocyte cells were grown in DMEM media (ATCC #30-2002) supplemented with 10% FBS. Stock solutions of MJX series compounds were prepared in DMSO, while the stock solution of α-ketobutyrate was prepared in dH2O. Cells were seeded in the afternoon at 70-80% confluency and the next morning treated with the indicated concentrations of compounds for the indicated times. Cells were then washed with ice-cold PBS and immediately lysed on ice with RIPA buffer. Lysates were clarified at 18,000 g at 4° C., the supernatants transferred to new tubes, mixed with […] of 5×SDS-PAGE loading buffer, and heated for 10 minutes at 70° C. Lysates were then separated by SDS-PAGE using 4-12% Bis-Tris gels (Life Technologies) and transferred to PVDF membranes (Millipore) for western blotting analysis. All antibodies were purchased from Cell Signaling.

mTORC1 = assay: Western blot of mTORC1 signaling in H9C2 rat cardiomyocytes; format: cell-based; conditions: H9C2 cells
Procedure: as §1

AMPK signaling pathway = assay: Western blot of AMPK signaling in H9C2 rat cardiomyocytes; format: cell-based; conditions: H9C2 cells
Procedure: as §1

mTORC2 = assay: Western blot of mTORC2 signaling in H9C2 rat cardiomyocytes; format: cell-based; conditions: H9C2 cells, FIGS. 2C, 2E
Procedure: as §1

H9C2 Cells [1] = assay: Proliferation of H9C2 cells; format: cell-based, rat; conditions: FIGS. 6A & 6B
H9C2 Cells [2] = assay: [U-13C6]glucose tracing of metabolites in H9C2 cells (LC-MS); format: cell-based, rat; conditions: 24 h, FIG. 4
Procedure: To evaluate the metabolic pathways in use, H9C2 Cells were cultured with designated compounds and medium containing [U-^13C6]glucose for 24 h. Metabolites were extracted for LC-MS detection.

Caenorhabditis elegans = assay: Lifespan of N2 wildtype C. elegans on NGM treatment plates containing compound; format: in vivo; design: mean lifespan: unit not given here; conditions: for mean lifespan / % increase (mean lifespan): FIG. 1B experiment; for mean lifespan: DMSO control 15.3; for % increase (mean lifespan): vs DMSO
Procedure: The anti-aging effects of MJX001-MJX005 were tested in the nematode Caenorhabditis elegans. Worms of the N2 wildtype strain of C. elegans were age-synchronized by performing either a timed egg lay or an egg preparation (mix <100 gravid worms in 70 μl M9 buffer, 25 μl bleach and 5 μl 10 N NaOH). Once the worms reached day 1 of adulthood, they were picked onto NGM treatment plates containing 1.5% dimethyl sulfoxide (DMSO; Sigma D8418), 49.5 μM 5-fluoro-2′-deoxyuridine (FUDR, Sigma F0503), and either […] (Sigma K401) or one of the MJX series test compounds. All plates were adjusted to pH 6.0 (i.e., the same pH as the control plates) if necessary by the addition of NaOH. Once dry, the plates were seeded with OP50 E. coli as the C. elegans food source. […] Worms were moved to new plates every 4 days. All worms were maintained in a single humidified, temperature-controlled incubator at 20° C. Lifespan curves were generated and statistical analyses performed.

## C/C=c1\oc(=O)/c(=C/C)oc1=O [MJX004]
mTOR signaling
  time course of inhibition of mTOR signaling: less potent but more prolonged; also recorded: more prolonged effect on mTOR signaling
mTORC1; at 4 and 8 hr, FIG. 2E
  inhibition of mTORC1: sustained inhibition of mTORC1
mTORC1; western blot, FIGS. 2A, 2B, 2C, 2F
  mTORC1 signaling (phosphorylation of mTORC1 targets S6K (T389), 4E-BP1 (S65), ULK1 (S757)): inhibited mTORC1 signaling
AMPK signaling pathway; 15 min to 8 hr, FIGS. 2C, 2E, 2F
  time course of AMPK activation: less potent but more prolonged
AMPK signaling pathway; at 4 hr, FIG. 2E
  activation of AMPK: strong activation of AMPK
AMPK signaling pathway; western blot, FIGS. 2A, 2B, 2F
  activation of AMPK signaling pathway (phosphorylation of AMPK targets ACC (S79) and ULK1 (S555)): activate the AMPK pathway
mTORC2
  time course of inhibition of mTORC2 (decreased phosphorylation of Akt (S473)): strongest after just 15 and 30 minutes treatment, but recovered to normal levels by 2 hr and beyond
H9C2 Cells [1]
  effect on proliferation (inhibition), rank order: strongest effect on proliferation
H9C2 Cells [2]
  M2 citrate using [U-13C6]glucose as a tracer: decreased M2 citrate
Caenorhabditis elegans; 1 mM
  mean lifespan: 19.7
  % increase (mean lifespan): 28.7%
Caenorhabditis elegans; 2 mM
  mean lifespan: 20.0
  % increase (mean lifespan): 30.9%
Caenorhabditis elegans; 4 mM
  mean lifespan: 21.1
  % increase (mean lifespan): 38.0%
Caenorhabditis elegans; FIGS. 1A-1C, result in words
  effect on C. elegans lifespan: dose-dependent increases in lifespan
